# Literature values as cited in patent US8530500B2, “Stable pharmaceutical omeprazole formulation for oral administration” (Vetegen, LLC, priority 2009, dated 2013).
# Columns and labels:
# [1] = not given; remark: listed apart in the source
structure (smiles),measurement,setting,value
COc1ccc2[nH]c([S+]([O-])Cc3ncc(C)c(OC)c3C)nc2c1 (stereo not shown) [omeprazole],half-life at neutral pH,neutral pH,about 14 hours
same,stability at pH levels above 7,"pH above 7, protected from light and extremes in temperature and humidity",very stable
same,"stability in water, ethanol or acidic environments","water, ethanol or acidic environments",not very stable
same,solubility in dimethyl sulfoxide (DMSO),[1]; DMSO,> 19 mg/mL
same,solubility in Polyethylene Glycol 400,[1]; Polyethylene Glycol 400,20 mg/mL
same,solubility in ethanol,[1]; ethanol,4.5 mg/mL
same,solubility in water,[1]; water,0.5 mg/mL
